# Experimental data from paper PMC10914731, “Homo-BacPROTAC-induced degradation of ClpC1 as a strategy against drug-resistant mycobacteria” (Nature Communications, 2024).
# Values joined by “and” are separate entries in the source; they are usually repeats but may differ in a detail not shown here. Identical values can stand only once. Like-named read-outs stand apart in the source and are kept apart here. *1 amine or outer side, *2 acyl side, *3 side chain or, on linkers, in order; H or OH if unused. Where a SMILES comes first, the peptide text is derived from it. [ ]: non-standard residue; d: D form. X1 = C#CCn1cc(C[C@H](N[*:1])C(=O)[*:2])c2ccccc21; NMeLeu(5-OH,4R) = CN[C@@H](C[C@@H](C)CO)C(=O)O; Phe(βR-OMe) = CO[C@H](c1ccccc1)[C@H](N)C(=O)O; NMeL = CN[C@@H](CC(C)C)C(=O)O
# Tests used:
# [1] = assay type: in vitro ADME, Human; details: human, pH 7.4
# Caco-2 monolayers = experiment: in vitro; details: human, Caco-2
# In short: (§1)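 Permeability across Caco-2 monolayers was measured in both directions, apical-to-basolateral and basolateral-to-apical, in 10^-6 cm s-1. Efflux ratio = P(B−A)/P(A−B). Intrinsic permeability is the mean of P(A−B) and P(B−A).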
# in vitro = details: human
# In short: as §1
# Mycobacterium abscessus = experiment: microbe, parasite or virus in culture; assay type: cell-based
# [2] = molecular target: endogenous ClpC1 in Msm #607 cells (Mycolicibacterium smegmatis, UniProt A0R574); assay type: cell-based, M. smegmatis
# [3] = tested on: M. tuberculosis H37Rv (ATCC 27294); experiment: microbe, parasite or virus in culture; assay type: cell-based
# Mtb # 8673 = experiment: microbe, parasite or virus in culture; assay type: cell-based
# [4] = assay type: in vitro ADME, Mice
# In short: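 Compound at 1 µmol/l incubated with 0.5 mg/ml liver microsomes in 100 mM Tris-HCl pH 7.5, 6.5 mM MgCl2, 1 mM NADPH, 37 °C; acetonitrile-quenched at multiple time points, measured by HPLC-MS/MS. First-order half-lives converted to clearance as %Qh via well-stirred liver model.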
# [5] = tested on: Mtb (katG del) ATCC 35822; experiment: microbe, parasite or virus in culture; assay type: cell-based; details: Mycobacterium tuberculosis
# Msm 607 = experiment: microbe, parasite or virus in culture; assay type: cell-based
# Pseudomonas aeruginosa = experiment: MIC ESKAPES panel, Pseudomonas aeruginosa; assay type: cell-based
# In short: (§2)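 CLSI broth microdilution was run in Mueller Hinton broth with an inoculum of 3–7 × 10^5 cfu/ml at 37 °C. Turbidity was read on day 2; clear wells indicated growth inhibition.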
# Klebsiella pneumoniae = experiment: MIC ESKAPES panel, Klebsiella pneumoniae; assay type: cell-based
# In short: as §2
# Mtb # 11291 = experiment: microbe, parasite or virus in culture; assay type: cell-based; details: single well replicates
# Enterococcus faecium = experiment: MIC ESKAPES panel, Enterococcus faecium; assay type: cell-based
# In short: as §2
# Mtb ATCC 35825 = experiment: microbe, parasite or virus in culture; assay type: cell-based
# [6] = Gram-Negative Bacteria, replicates 1-3
# endogenous ClpC1 in Msm #607 cells, sequence (A0R574 whole entry): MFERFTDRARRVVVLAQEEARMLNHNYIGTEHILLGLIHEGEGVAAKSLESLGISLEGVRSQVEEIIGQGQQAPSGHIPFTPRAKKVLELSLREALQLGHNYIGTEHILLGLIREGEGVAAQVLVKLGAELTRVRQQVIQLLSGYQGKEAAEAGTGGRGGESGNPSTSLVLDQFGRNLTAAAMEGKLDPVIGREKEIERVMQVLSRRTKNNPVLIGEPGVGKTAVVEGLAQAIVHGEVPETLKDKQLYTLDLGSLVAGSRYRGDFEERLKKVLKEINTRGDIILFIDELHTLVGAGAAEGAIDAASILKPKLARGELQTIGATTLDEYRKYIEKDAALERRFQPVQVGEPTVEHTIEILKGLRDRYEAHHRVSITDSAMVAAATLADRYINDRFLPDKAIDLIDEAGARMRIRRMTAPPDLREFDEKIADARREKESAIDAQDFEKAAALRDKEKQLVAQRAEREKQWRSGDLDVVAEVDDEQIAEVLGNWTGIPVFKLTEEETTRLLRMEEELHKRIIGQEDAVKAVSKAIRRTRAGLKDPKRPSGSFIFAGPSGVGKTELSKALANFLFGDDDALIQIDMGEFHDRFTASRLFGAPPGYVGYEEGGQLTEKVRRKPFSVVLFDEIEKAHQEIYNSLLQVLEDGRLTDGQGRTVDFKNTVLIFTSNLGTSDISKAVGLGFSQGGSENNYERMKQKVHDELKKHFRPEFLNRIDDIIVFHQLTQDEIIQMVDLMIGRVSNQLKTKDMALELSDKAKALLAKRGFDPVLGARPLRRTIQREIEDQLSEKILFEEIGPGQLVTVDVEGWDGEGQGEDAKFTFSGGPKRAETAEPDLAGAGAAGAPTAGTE
compound,measurement,setting,value
"C#CCn1cc(C[C@@H]2NC(=O)[C@H](C(C)C)NC(=O)[C@H](CC(C)C)N(C)C(=O)[C@H](C(C)C)NC(=O)[C@H]([C@H](OC)c3ccccc3)NC(=O)[C@H](C)NC(=O)[C@H](C[C@@H](C)CO)N(C)C2=O)c2ccccc21 [Compound 5] (cyclo(A[Phe(βR-OMe)]V[NMeL]V[X1][NMeLeu(5-OH,4R)]))",Hepatocyte Human,[1],12 %Qh
same,Hepatocyte Stability Human QH,[1],12.386%
same,Caco-2 Int. Perm,Caco-2 monolayers,12.1
same,Influence of N-methylation on permeability,Caco-2 monolayers,9.3
same,efflux ratio,in vitro; Caco-2,20.4
same,Papp A→B,"in vitro; Caco-2, CACO permeability PEAB",0.95 ×10⁻⁶ cm/s
same,Papp B→A,"in vitro; Caco-2, CACO permeability PEBA",19 ×10⁻⁶ cm/s
same,Papp A→B,"in vitro; Caco-2, Caco-2 permeability P (A-B)",1.1 ×10⁻⁶ cm/s
same,Papp B→A,"in vitro; Caco-2, Caco-2 permeability P (B-A)",23 ×10⁻⁶ cm/s
same,MIC (µg/ml) Mycobacterium abscessus,"Mycobacterium abscessus; Experiment 2, three replicate columns",5.88 µg/mL
same,MIC,"Mycobacterium abscessus; Experiment 2, three replicate columns, read-out: MIC (µM) Mycobacterium abscessus",6.25 µM
same,MIC,"Mycobacterium abscessus; Mycobacteroides abscessus, Experiment 1, read-out: MIC Mycobacterium abscessus",3.1 µM and 2.9 µg/mL
same,MIC,"Mycobacterium abscessus; Mycobacteroides abscessus, Experiment 2, three replicate columns, read-out: MIC (µM) Mycobacterium abscessus",6.25 µM
same,MIC,"Mycobacterium abscessus; Mycobacteroides abscessus, Experiment 2, three replicate columns, read-out: MIC (µg/ml) Mycobacterium abscessus",5.88 µg/mL
same,MIC,"Mycobacterium abscessus; Mycobacteroides abscessus, mean ± SD, read-out: MIC Mycobacterium abscessus",5.5 ± 1.6 µM
same,ClpC1 peak area,"[2]; 100 µM, Figure 5c, well replicates of 3 experiments",296040 and 308121 and 346162 and 550976 and 476988 and 428795 and 417149 and 443522 and 406576
same,intracellular degradation of ClpC1,"[2]; Msm #607, 24 h, result in words",did not induce degradation of ClpC1
same,MIC,"[3]; M. tuberculosis H37Rv 27294, single well replicates, read-out: MIC",3.125 µM (2×) and 1.56 µM
same,MIC,"[3]; Mycobacterium tuberculosis, M. tuberculosis H37Rv strain, read-out: MIC Mtb H37Rv Mean ± SD",1.6 µM
same,MIC,"[3]; Mycobacterium tuberculosis, Mtb H37Rv (Supplementary Table 2), read-out: MIC Mtb",1.6 µM
same,MIC,"[3]; Mycobacterium tuberculosis, Mtb H37Rv, mean ± SD, n = 3 well replicates, read-out: MIC",2.6 ± 0.9 µM
same,MIC,"[3]; Mycobacterium tuberculosis, Set 1, read-out: MIC (Mtb H37Rv) Set 1",1.56 µM and 1.47 µg/mL
same,MIC,"[3]; Mycobacterium tuberculosis, Set 2, read-out: MIC (Mtb H37Rv) Set 2",1.56 µM and 1.47 µg/mL
same,MIC,"[3]; Mycobacterium tuberculosis, Set 3, done at a different day than Set 1 and Set 2, read-out: MIC (Mtb H37Rv) Set 3",1.56 µM and 1.47 µg/mL
same,MIC,"[3]; Mycobacterium tuberculosis, individual example (Supplementary Table 11), read-out: MIC Mtb H37Rv",1.6 µM and 1.5 µg/mL
same,MIC,"[3]; Mycobacterium tuberculosis, individual measurements (source data), read-out: Mtb MIC",1.56 µM
same,MIC,"[3]; Mycobacterium tuberculosis, mean of 3 experiments +/- SD, unit taken from the sets above in the same table, read-out: MIC data (Mtb H37Rv) (+/- SD)",1.56 µM and 1.47 µg/mL
same,MIC,"[3]; Mycobacterium tuberculosis, single determinations, read-out: Mtb MIC",1.56 µM
same,MIC,"Mtb # 8673; Mycobacterium tuberculosis, mean, n = 2 well replicates",0.2 µM and 0.2 µg/mL
same,MIC,"Mtb # 8673; Mycobacterium tuberculosis, single well replicates",0.19 µM and 0.18 µg/mL
same,MIC,Mtb # 8673; single well replicates,0.19 µM
same,MIC Mtb # 8673,Mtb # 8673; single well replicates,0.18 µg/mL
same,Microsomal Stability Mouse QH,[4]; Mouse,>88.400%
same,Microsomal Stability Mice,[4]; clearance in microsomes,> 88 %Qh
same,MIC,"[5]; ATCC35822, M. tuberculosis ATCC 35822, single well replicates",0.781 µM
same,MIC,"[5]; ATCC35822, Mtb (katG del) ATCC 35822, mean ± SD, n = 3 well replicates",0.8 µM
same,MIC,"Msm 607; Mycolicibacterium smegmatis, 607, read-out: MIC Msm 607",25 µM
same,MIC,"Msm 607; Mycolicibacterium smegmatis, 607, read-out: MIC Msm #607, individual example (Supplementary Table 11)",25 µM and 23.5 µg/mL
same,MIC,"Msm 607; Mycolicibacterium smegmatis, 607, read-out: Msm 607 MIC, single determinations",25 µM
same,MIC,"Msm 607; Mycolicibacterium smegmatis, ATCC607, Set-1, read-out: MIC (Msm ATCC607) Set-1",12.5 µM and 11.8 µg/mL
same,MIC,"Msm 607; Mycolicibacterium smegmatis, ATCC607, Set-2, read-out: MIC (Msm ATCC607) Set-2",25 µM and 23.5 µg/mL
same,MIC,"Msm 607; Mycolicibacterium smegmatis, ATCC607, Set-3, done at a different day than Set 1 and Set 2, read-out: MIC (Msm ATCC607) Set-3",12.5 µM and 11.8 µg/mL
same,MIC,"Msm 607; Mycolicibacterium smegmatis, ATCC607, mean of 3 experiments ± SD, read-out: MIC including standard deviations (Msm ATCC607)",16.6 µM and 15.7 µg/mL
same,MIC,Pseudomonas aeruginosa; [6],>50 µM
same,MIC,"Pseudomonas aeruginosa; Pseudomonas aeruginosa, Gram negative, n = 3 well replicates",> 50 µM
same,MIC,"Pseudomonas aeruginosa; Pseudomonas aeruginosa, Gram-Negative Bacteria, replicates 1-3",> 47 µg/mL
same,MIC,Klebsiella pneumoniae; [6],>50 µM
same,MIC,"Klebsiella pneumoniae; Klebsiella pneumoniae, Gram negative, n = 3 well replicates",> 50 µM
same,MIC,"Klebsiella pneumoniae; Klebsiella pneumoniae, Gram-Negative Bacteria, replicates 1-3",> 47 µg/mL
same,MIC Mtb # 11291,Mtb # 11291,0.18 µg/mL
same,MIC,Mtb # 11291; read-out: MIC Mtb # 11291,0.19 µM
same,MIC,"Enterococcus faecium; Enterococcus faecium, Gram positive, n = 3 well replicates",> 50 µM
same,MIC,"Enterococcus faecium; Enterococcus faecium, Gram-Positive Bacteria, replicates 1-3",> 47 µg/mL
same,MIC,"Enterococcus faecium; Gram-Positive Bacteria, replicates 1-3",>50 µM
same,MIC,"Mtb ATCC 35825; Mycobacterium tuberculosis, ATCC35825, mean, n = 2 well replicates",0.2 µM and 0.2 µg/mL
same,MIC,"Mtb ATCC 35825; Mycobacterium tuberculosis, ATCC35825, single well replicates",0.18 µg/mL and 0.19 µM
same,MIC,Mtb ATCC 35825; single well replicates,0.19 µM
same,MIC Mtb ATCC 35825,Mtb ATCC 35825; single well replicates,0.18 µg/mL
